The term MIC denotes the smallest concentration in the dilution series that meets the test's criterion for growth inhibition.

The target in experiment [1] is T1, S. aureus FtsZ (Staphylococcus aureus, UniProt P0A031).
T1 sequence (P0A031 1-390): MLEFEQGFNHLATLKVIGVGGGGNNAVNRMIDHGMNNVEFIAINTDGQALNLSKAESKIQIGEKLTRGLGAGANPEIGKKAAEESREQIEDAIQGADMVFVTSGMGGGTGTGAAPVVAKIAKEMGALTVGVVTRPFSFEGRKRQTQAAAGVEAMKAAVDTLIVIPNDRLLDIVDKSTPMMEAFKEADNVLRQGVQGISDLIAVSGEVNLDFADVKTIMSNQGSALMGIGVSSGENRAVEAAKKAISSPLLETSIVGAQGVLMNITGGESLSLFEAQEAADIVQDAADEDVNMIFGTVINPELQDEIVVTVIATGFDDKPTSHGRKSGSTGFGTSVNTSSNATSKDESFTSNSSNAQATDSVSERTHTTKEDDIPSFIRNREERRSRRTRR
Nature of the experiment: Inhibition of S. aureus FtsZ polymerization and GTPase activity (Tests A and B). Type of experiment: biochemical. From the text:
Test A. Determining the Impact of the Compounds of the Invention on FtsZ Polymerization Dynamics.
Compound-induced alteration in FtsZ polymerization dynamics can be tested using a light scattering-based […] using purified FtsZ. Upon addition of GTP, FtsZ self-associates to form polymeric structures that scatter light at 340 nm to a greater extent than the monomeric protein. The impact of the compounds of the invention on the polymerization dynamics of FtsZ can be detected by an increase of decrease in the extent of GTP-induced light scattering relative to that observed in the absence of compound. Quantitation of the overall extent of light scattering as a function of compound concentration to yield a compound concentration at which FtsZ polymerization is inhibited by 50% (IC50) provides an indication of the potency of that compound at altering FtsZ polymerization dynamics.
Test B. Determining the FtsZ GTPase Inhibitory Activities of Compounds of the Invention.
Compound-induced inhibition of the FtsZ GTPase activity can be tested using a colorimetric assay in which the inorganic phosphate (Pi) released upon FtsZ-catalyzed hydrolysis of GTP reacts with malachite green and molybdate under acidic conditions to form a ternary complex that absorbs light at 650 nm, thus enabling quantitation of Pi levels by recording the absorbance at 650 nm (A650). Differing concentrations of test compound are combined with GTP and the reactions (run in triplicate) are initiated by addition of FtsZ. After incubation for 60 minutes at room temperature, the reactions are stopped by addition of an acidic malachite green-molybdate solution containing malachite green oxalate, sodium molybdate, Triton X-100, and 0.7 N HCl. For the purposes of generating a standard curve, each experiment includes reactions containing known concentrations of monobasic potassium phosphate (KH2PO4) in place of FtsZ. Ten minutes following addition of the acidic malachite green-molybdate solution, the A650 value for each reaction is recorded. A standard curve of A650 versus Pi concentration is constructed using the average A650 value obtained for each known KH2PO4 concentration. This standard curve is then fit by linear regression analysis to yield the quantitative relationship between A650 and Pi concentration. The resulting relationship as well as the average A650 value for each test reaction is used to calculate the concentrations of Pi released by the GTPase activity of FtsZ. The released Pi concentration in the absence of test compound is set as the mark for 100% GTPase activity, and is used to calculate the percent GTPase activities in reactions containing test compounds. The percent GTPase activity is then plotted as a function of log (compound concentration), with the resulting curves being fit using an appropriate sigmoidal relationship to obtain the compound concentrations at which GTPase activity is inhibited by 50% (IC50 values).

Experiment [2] relates to methicillin-resistant Staphylococcus aureus (MRSA). In words: Planktonic antibacterial broth microdilution assay (Test C), MIC vs MRSA. It is filed as cell-based. As to conditions: read-out: MIC vs MRSA. The procedure:
(§1) Test C. Planktonic (Free-Living) Antibacterial Assay.
(§2) Planktonic antibacterial activity can be determined using a broth microdilution assay in which log-phase bacteria are grown at 37° C. in appropriate medium containing two-fold serial dilutions of a compound to yield a final concentration ranging from 256 to 0.1 μg/ml. For determination of minimal inhibitory concentration (MIC) values, bacterial growth is monitored after 24 to 48 hours by measuring optical density at 600 nm. […] The minimal inhibitory concentration against methicillin-sensitive Staphylococcus aureus (MSSA) for each of the following representative compounds of the invention was determined to be less than 32 μg/ml.
Representative compounds of the invention were also tested against methicillin-resistant Staphylococcus aureus, vancomycin-resistant Enterococcus faecalis and Enterococcus faecium (VRE), vancomycin-sensitive Enterococcus faecalis and Enterococcus faecium (VSE).
Background: Broth dilution looks for growth in wells or tubes with falling amounts of substance.

In experiment [3] the test system is methicillin-sensitive Staphylococcus aureus (MSSA). Nature of the experiment: Planktonic antibacterial broth microdilution assay (Test C), MIC vs MSSA. Type of experiment: cell-based. As to conditions: 37° C., growth read after 24 to 48 hours at OD 600 nm. How it is done:
as §1, §2

Setting [4] is: S. aureus FtsZ, polymerization and/or GTPase activity, read-out: IC50 (compound concentration at which FtsZ polymerization and/or GTPase activity is inhibited by 50%).
[5] abbreviates: broth microdilution, 37° C., growth read after 24 to 48 hours at OD 600 nm.

Read-outs that look alike come from different tables or passages of the source. Bounds are passed on as bounds.

Turning to `CCC[n+]1cc(-c2cc(OC)c(OC)c(-c3ccc(C(C)(C)C)cc3)c2)cc2cc(OC)c(OC)cc21.[I-]` [Example 19], the IC50 in experiment [1] (setting [4]) is under 79.7 µM. Besides, the MIC in experiment [2] (setting [5]) and in experiment [3] was at most 8 µg/mL each time.
Consider `C[n+]1cc(-c2cc(-c3ccccc3)cc(-c3ccccc3)c2)cc2ccccc21.[I-]` [Example 35], for which the MIC in experiment [2] (setting [5]) and in experiment [3] was at most 8 µg/mL in each case.
Take `CC(C)(C)c1ccc(-c2cccc3c(CCN)cccc23)cc1` [Example 36]: the MIC in experiment [2] (setting [5]) and in experiment [3] was at most 8 µg/mL in each case.
Take `CC(C)(C)c1ccc(-c2cccc3c(CCN=C(N)N)cccc23)cc1` [Example 37]: the MIC in experiment [2] (setting [5]) and in experiment [3] was at most 8 µg/mL throughout.
With `CC(C)(C)c1ccc(-c2cccc3c(CN)cccc23)cc1` [Example 41], in experiment [1] (setting [4]), the IC50 is under 173 µM. For the same compound, the MIC in experiment [2] (setting [5]) and in experiment [3] was at most 8 µg/mL throughout.
As to `CC(C)(C)c1ccc(-c2cccc3c(CNC(=N)N)cccc23)cc1` [Example 42], the IC50 in experiment [1] (setting [4]) was under 151 µM. Also, the minimum inhibitory concentration (MIC) in experiment [2] (setting [5]) and in experiment [3] was at most 8 µg/mL in each case.
As for `CC(C)(C)c1ccc(-c2cccc3c(CC(=N)N)cccc23)cc1` [Example 56], the MIC in experiment [2] (setting [5]) and in experiment [3] was at most 8 µg/mL in each case.
`CN(C)CCNCc1ccccc1-c1ccc2c(-c3ccc(C(C)(C)C)cc3)cccc2c1` [Example 59]: the MIC in experiment [2] (setting [5]) and in experiment [3] was at most 8 µg/mL each time.
Turning to `CNCc1ccccc1-c1ccc2c(-c3ccc(C(C)(C)C)cc3)cccc2c1` [Example 61], the MIC in experiment [2] (setting [5]) and in experiment [3] was at most 8 µg/mL throughout.
As for `CC(C)(C)c1ccc(-c2cccc3cc(-c4ccccc4CNCCN)ccc23)cc1` [Example 62], the MIC in experiment [2] (setting [5]) and in experiment [3] was at most 8 µg/mL each time.
Regarding `CC(C)(C)c1ccc(-c2cccc3cc(-c4ccccc4C[N+](C)(C)C)ccc23)cc1.[I-]` [Example 63], in experiment [1] (setting [4]), the IC50 is under 93.4 µM. For the same compound, the MIC in experiment [2] (setting [5]) and in experiment [3] was at most 8 µg/mL throughout.
In the case of `NCc1cccc(-c2ccc3c(-c4cccc(-c5ccccc5)c4)cccc3c2)c1` [Example 70], the MIC in experiment [2] (setting [5]) and in experiment [3] was at most 8 µg/mL throughout.
In the case of `CC(C)(C)c1ccc(-c2cccc3cc(-c4ccccc4CNC(=N)N)ccc23)cc1` [Example 104], in experiment [1] (setting [4]), the IC50 was under 123 µM. This compound also displayed an MIC in experiment [3] of at most 8 µg/mL.
Take `C[n+]1ccc2c(-c3ccc(-c4ccccc4)cc3)cccc2c1.[I-]` [Example 112]: the IC50 in experiment [1] was under 118 µM. Also, the values for the MIC in experiment [2] and in experiment [3] were 32 µg/mL and at most 8 µg/mL, respectively.
In the case of `C[n+]1cccc2cc(-c3ccc(-c4ccccc4)cc3)ccc21.[I-]` [Example 114], the IC50 in experiment [1] (setting [4]) was under 118 µM. The MIC in experiment [2] (setting [5]) and in experiment [3] was at most 8 µg/mL throughout.
For `C[n+]1cccc2ccc(-c3ccc(-c4ccccc4)cc3)cc21.[I-]` [Example 116], the MIC in experiment [2] (setting [5]) was 16 µg/mL; in experiment [3], at most 8 µg/mL.
`C[n+]1ccc(-c2ccc(-c3ccccc3)cc2)c2ccccc21.[I-]` [Example 120] displayed an IC50 in experiment [1] of under 118 µM. In addition, the MIC in experiment [2] was over 32 µg/mL; in experiment [3] it was at most 8 µg/mL.

For the origin of these results see patent US9102617B2, “Antimicrobial agents” (Rutgers, The State University of New Jersey, priority 2010, dated 2015).
